Patent US20250108038A1 (priority 2023, published 2025)
Several values for one entry are separate records, joined by “and”; a condition that tells them apart may be missing. Equal values may be shown once.

System: Long Evans rats
Experiment: Behavioral satiety sequence (BSS)
Type: in vivo, Long Evans rat
From the text: The Behavioural Satiety Sequence (BSS) is a technique used to evaluate physiological satiety. It is based on the expression of a sequence of behaviors including eating, grooming, locomotor activity, followed by resting, which are typically observed in rodents post-ingestion (Halford et al, 1998, Pharmacology Biochemistry and Behaviour. 61(2): 159-168). The BSS is a widely used model for determining the effects of novel pharmaceuticals on food intake and measures of satiety in rodents (Oliveira et al, 2011, Revista de Nutrição. 24(4) 619-628), and to discriminate the cause of reduced food intake following pharmacological manipulation. For example, treatments that may reduce food intake by non-specific mechanisms, such as immobility, malaise, and taste adulteration, will disrupt this sequence (Halford et al, 1998, Pharmacology Biochemistry and Behaviour. 61(2): 159-168).
Specifically, 12 male Long-Evans rats were food-deprived for 22 h with a 2 h feeding period each day. Rats were trained to consume daily food during the 2 h period over 25 days. The testing phase was initiated once the rats consistently consumed 16-18 g of food per day with ≤10% variance in amount of feed consumed. Feeding took place in designated individual boxes in a quiet room separate from the housing room. Continuous remote monitoring via video camera during feeding was used to assess the BSS. Food consumption was measured by weighing the total available food before and after the 2 h feeding window, correcting for spillage. Lorcaserin (1 mg/kg) was included as a reference control (Higgins et al, 2011, Neuropsychopharmacology. 37(5): 1177-1191). Subjects were tested using a repeated-measures, Latin square design with 2-3 days wash-out between treatment cycles.
On scheduled test days, animals were monitored remotely via video camera during the feeding access period. The occurrence of four mutually exclusive behaviors (eating/drinking, grooming, active, rest) were individually scored. Over the 2 h feeding period, behaviors were assessed every 30 seconds. Scores were compiled into 23 5 min timebins (timebin 24 was removed due to early removal of animals) and the frequency of each behavior within each timebin was calculated to determine a temporal frequency of each measure (Rodgers et al, 2010, Pharmacology Biochemistry and Behaviour. 97: 3-14). Percentage time was plotted for each behavioral sequence in each timebin to compare between treatment groups (Higgins et al, 2011, Neuropsychopharmacology. 37(5): 1177-1191).

[1] = 3 mg/kg, raw data per animal (LT-1 to LT-12)
[2] = Compound I-19 0.1 mg/kg, AVG of animals LT-1 to LT-12
[3] = Compound I-19 0.1 mg/kg, AVG of animals LT-1 to LT-12, 0-0.5 hours

Compound: Clc1ccc(C2(OCC3OCCO3)c3ccccc3C3=NCCN32)cc1 (stereo not drawn) [Compound I-19]
- BSS scoring E (eating/drinking), Time Bin 19 (90-95 TOTAL), AVG (3 mg/kg, AVG of LT-1 to LT-12): 0.59
- BSS scoring E (eating/drinking), Time Bin 20 (95-100 TOTAL), AVG (3 mg/kg, AVG of LT-1 to LT-12): 0.62
- BSS scoring E (eating/drinking), Time Bin 21 (100-105 TOTAL), AVG (3 mg/kg, AVG of LT-1 to LT-12): 0.56
- BSS scoring E (eating/drinking), Time Bin 22 (105-110 TOTAL), AVG (3 mg/kg, AVG of LT-1 to LT-12): 0.52
- BSS scoring E (eating/drinking), Time Bin 23 (110-115 TOTAL), AVG (3 mg/kg, AVG of LT-1 to LT-12): 0.58
- BSS scoring E (eating/drinking), Time Bin 24 (115-120 TOTAL), AVG (3 mg/kg, AVG of LT-1 to LT-12): 0.37
- BSS scoring G (grooming), Time Bin 19 (90-95 TOTAL), AVG (3 mg/kg, AVG of LT-1 to LT-12): 0.05
- BSS scoring G (grooming), Time Bin 20 (95-100 TOTAL), AVG (3 mg/kg, AVG of LT-1 to LT-12): 0.04
- BSS scoring G (grooming), Time Bin 21 (100-105 TOTAL), AVG (3 mg/kg, AVG of LT-1 to LT-12): 0.06
- BSS scoring G (grooming), Time Bin 22 (105-110 TOTAL), AVG (3 mg/kg, AVG of LT-1 to LT-12): 0.07
- BSS scoring G (grooming), Time Bin 23 (110-115 TOTAL), AVG (3 mg/kg, AVG of LT-1 to LT-12): 0.02
- BSS scoring G (grooming), Time Bin 24 (115-120 TOTAL), AVG (3 mg/kg, AVG of LT-1 to LT-12): 0.02
- BSS scoring R (resting), Time Bin 19 (90-95 TOTAL), AVG (3 mg/kg, AVG of LT-1 to LT-12): 0.18
- BSS scoring R (resting), Time Bin 20 (95-100 TOTAL), AVG (3 mg/kg, AVG of LT-1 to LT-12): 0.15
- BSS scoring R (resting), Time Bin 21 (100-105 TOTAL), AVG (3 mg/kg, AVG of LT-1 to LT-12): 0.16
- BSS scoring R (resting), Time Bin 22 (105-110 TOTAL), AVG (3 mg/kg, AVG of LT-1 to LT-12): 0.22
- BSS scoring R (resting), Time Bin 23 (110-115 TOTAL), AVG (3 mg/kg, AVG of LT-1 to LT-12): 0.22
- BSS scoring R (resting), Time Bin 24 (115-120 TOTAL), AVG (3 mg/kg, AVG of LT-1 to LT-12): 0.18
- BSS scoring A (active), Time Bin 19 (90-95 TOTAL) [1]: 0 (3×) and 1 (2×) and 2 (5×) and 4 and 5
- BSS scoring A (active), Time Bin 20 (95-100 TOTAL) [1]: 5 and 0 (5×) and 3 and 4 (3×) and 1 and 2
- BSS scoring A (active), Time Bin 21 (100-105 TOTAL) [1]: 7 and 0 (6×) and 1 and 5 (3×) and 3
- BSS scoring A (active), Time Bin 22 (105-110 TOTAL) [1]: 0 (5×) and 1 and 3 (2×) and 5 and 2 (2×) and 8
- BSS scoring A (active), Time Bin 23 (110-115 TOTAL) [1]: 0 (6×) and 3 (2×) and 5 (2×) and 1 and 6
- BSS scoring A (active), Time Bin 24 (115-120 TOTAL) [1]: 3 and 0 (3×) and 2 (3×) and 7 (2×) and 1 and 4 (2×)
- BSS scoring E (eating/drinking), Time Bin 19 (90-95 TOTAL) [1]: 7 (2×) and 8 (2×) and 9 and 6 and 0 and 1 and 5 (3×) and 10
- BSS scoring E (eating/drinking), Time Bin 20 (95-100 TOTAL) [1]: 4 (3×) and 10 and 5 and 8 (2×) and 9 (2×) and 0 and 7 and 6
- BSS scoring E (eating/drinking), Time Bin 21 (100-105 TOTAL) [1]: 3 and 10 (2×) and 9 (3×) and 7 (2×) and 0 (2×) and 1 and 2
- BSS scoring E (eating/drinking), Time Bin 22 (105-110 TOTAL) [1]: 8 and 5 and 7 (3×) and 9 (2×) and 0 (2×) and 3 (2×) and 4
- BSS scoring E (eating/drinking), Time Bin 23 (110-115 TOTAL) [1]: 10 (3×) and 6 and 0 (2×) and 8 (2×) and 4 and 3 and 5 (2×)
- BSS scoring E (eating/drinking), Time Bin 24 (115-120 TOTAL) [1]: 6 and 0 (3×) and 8 and 4 (2×) and 7 and 2 (2×) and 1 and 10
- BSS scoring G (grooming), Time Bin 19 (90-95 TOTAL) [1]: 0 (8×) and 2 (2×) and 1 (2×)
- BSS scoring G (grooming), Time Bin 20 (95-100 TOTAL) [1]: 0 (8×) and 1 (3×) and 2
- BSS scoring G (grooming), Time Bin 21 (100-105 TOTAL) [1]: 0 (8×) and 1 and 2 (3×)
- BSS scoring G (grooming), Time Bin 22 (105-110 TOTAL) [1]: 0 (8×) and 2 (2×) and 1 and 3
- BSS scoring G (grooming), Time Bin 23 (110-115 TOTAL) [1]: 0 (10×) and 1 (2×)
- BSS scoring G (grooming), Time Bin 24 (115-120 TOTAL) [1]: 0 (10×) and 1 (2×)
- BSS scoring R (resting), Time Bin 19 (90-95 TOTAL) [1]: 3 and 0 (5×) and 2 and 1 (3×) and 8 and 6
- BSS scoring R (resting), Time Bin 20 (95-100 TOTAL) [1]: 1 (4×) and 0 (4×) and 2 (3×) and 8
- BSS scoring R (resting), Time Bin 21 (100-105 TOTAL) [1]: 0 (5×) and 3 (2×) and 6 and 1 (3×) and 4
- BSS scoring R (resting), Time Bin 22 (105-110 TOTAL) [1]: 2 (3×) and 0 (2×) and 1 (5×) and 10 and 5
- BSS scoring R (resting), Time Bin 23 (110-115 TOTAL) [1]: 0 (5×) and 10 and 1 (2×) and 5 (2×) and 2 (2×)
- BSS scoring R (resting), Time Bin 24 (115-120 TOTAL) [1]: 1 (3×) and 0 (4×) and 2 (2×) and 4 (2×) and 7
- BSS scoring A (active), Time Bin 19 (90-95 TOTAL), AVG [2]: 0.30
- BSS scoring A (active), Time Bin 20 (95-100 TOTAL), AVG [2]: 0.13
- BSS scoring A (active), Time Bin 21 (100-105 TOTAL), AVG [2]: 0.08
- BSS scoring A (active), Time Bin 22 (105-110 TOTAL), AVG [2]: 0.13
- BSS scoring A (active), Time Bin 23 (110-115 TOTAL), AVG [2]: 0.21
- BSS scoring A (active), Time Bin 24 (115-120 TOTAL), AVG [2]: 0.16
- BSS scoring E (eating/drinking), Time Bin 19 (90-95 TOTAL), AVG [2]: 0.52
- BSS scoring E (eating/drinking), Time Bin 20 (95-100 TOTAL), AVG [2]: 0.68
- BSS scoring E (eating/drinking), Time Bin 21 (100-105 TOTAL), AVG [2]: 0.73
- BSS scoring E (eating/drinking), Time Bin 22 (105-110 TOTAL), AVG [2]: 0.68
- BSS scoring E (eating/drinking), Time Bin 23 (110-115 TOTAL), AVG [2]: 0.64
- BSS scoring E (eating/drinking), Time Bin 24 (115-120 TOTAL), AVG [2]: 0.52
- BSS scoring G (grooming), Time Bin 19 (90-95 TOTAL), AVG [2]: 0.03
- BSS scoring G (grooming), Time Bin 20 (95-100 TOTAL), AVG [2]: 0.05
- BSS scoring G (grooming), Time Bin 21 (100-105 TOTAL), AVG [2]: 0.04
- BSS scoring G (grooming), Time Bin 22 (105-110 TOTAL), AVG [2]: 0.04
- BSS scoring G (grooming), Time Bin 23 (110-115 TOTAL), AVG [2]: 0.03
- BSS scoring G (grooming), Time Bin 24 (115-120 TOTAL), AVG [2]: 0.03
- BSS scoring R (resting), Time Bin 19 (90-95 TOTAL), AVG [2]: 0.15
- BSS scoring R (resting), Time Bin 20 (95-100 TOTAL), AVG [2]: 0.14
- BSS scoring R (resting), Time Bin 21 (100-105 TOTAL), AVG [2]: 0.15
- BSS scoring R (resting), Time Bin 22 (105-110 TOTAL), AVG [2]: 0.15
- BSS scoring R (resting), Time Bin 23 (110-115 TOTAL), AVG [2]: 0.12
- BSS scoring R (resting), Time Bin 24 (115-120 TOTAL), AVG [2]: 0.13
- BSS scoring A (active), Time Bin 1 (0-5 TOTAL), AVG [3]: 0.09
- BSS scoring A (active), Time Bin 2 (5-10 TOTAL), AVG [3]: 0.04
- BSS scoring A (active), Time Bin 3 (10-15 TOTAL), AVG [3]: 0.03
- BSS scoring A (active), Time Bin 4 (15-20 TOTAL), AVG [3]: 0.09
- BSS scoring A (active), Time Bin 5 (20-25 TOTAL), AVG [3]: 0.08
- BSS scoring A (active), Time Bin 6 (25-30 TOTAL), AVG [3]: 0.13
- BSS scoring E (eating/drinking), Time Bin 1 (0-5 TOTAL), AVG [3]: 0.89
- BSS scoring E (eating/drinking), Time Bin 2 (5-10 TOTAL), AVG [3]: 0.96
- BSS scoring E (eating/drinking), Time Bin 3 (10-15 TOTAL), AVG [3]: 0.95
